Results on 5 compounds are retold here after EP0223890B1, “Aryl derivatives of pyrrole, their obtention and their use in immunology” (Albert ROLLAND S.A. Société dite, priority 1985, dated 1987).

Assay [1] concerns cellules spléniques de souris C57BL/6J. Description: rosette test in vitro (sheep red blood cells with mouse spleen cells). In kind it is cell-based. The note with it: for activité inhibitrice sur la formation des rosettes (comparison in words): compared with acide N-méthyl-4-(naphtoyl-1)-pyrrolyl-2-carboxylique; for activité immuno-stimulante (stimulation de la formation des rosettes): result in words. An excerpt: A) Activité des composés selon l'invention sur le test des rosettes in vitro
L'étude a été réalisée sur globules rouges de mouton avec des cellules spléniques de souris C57BL/6J.

The test system of assay [2] is transformation lymphoblastique. Kind of assay: lymphoblastic transformation test. The format is cell-based. The note with it: low concentration; vis-à-vis de la Concanavaline A and LPS (Lipopolysaccharides de E. Coli). Here is the method: B) Activité des composés selon l'invention sur le test de transformation lymphoblastique
Sur le test de transformation lymphoblastique, les composés selon l'invention montrent une activité antimitotique, aux doses allant de 5 à 50 µg/ml. […] La mise en évidence d'une activité immuno-stimulante pour certains de ces composés permet d'envisager une autre application thérapeutique.

Structures are written as SMILES.

`Cn1cc(C(=O)c2cc([S+](C)[O-])cc3ccccc23)cc1C(=O)O` (centres unmarked) [Acide N-méthyl-4-(3-méthylsulfinylnaphtoyl-1)-pyrrolyl-2-carboxylique]: the “activité inhibitrice sur la formation des rosettes (comparison in words)” value in assay [1] is on record as “activité comparable à celle de l'acide N-méthyl-4-(naphtoyl-1 )-pyrrolyl-2-carboxylique”. Besides, the “activité stimulante à faible concentration” value in assay [2] is “activité stimulante”.

Turning to `O=C(O)c1cc(C(=O)c2cccc3ccccc23)c[nH]1` [acide 4-(naphtoyl-1)pyrrolyl-2-carboxylique], the “activité inhibitrice sur la formation des rosettes (comparison in words)” value in assay [1] is listed as “activité inhibitrice du même ordre que celle du dérivé N-méthylé”. Moreover, in assay [2], the “activité stimulante à faible concentration” value is “activité stimulante”.

For `Cn1cc(C(=O)c2cccc3c2C=CC(O)C3O)cc1C(=O)O` (centres unmarked) [acide N-méthyl-4-(5,6-dihydroxy-5,6-dihydronaphtoyl-1)-pyrrolyl-2-carboxylique], the “activité inhibitrice sur la formation des rosettes (comparison in words)” value in assay [1] is “activité comparable à celle de l'acide N-méthyl-4-(naphtoyl-1 )-pyrrolyl-2-carboxylique”.

With `Cn1cc(C(=O)c2cccc3c(O)cccc23)cc1C(=O)O` [dérivé N-méthyl-5-hydroxylé, Acide N-méthyl-4-(5-hydroxy-naphtoyl-1)-pyrrolyl-2-carboxylique], in assay [1], the “activité inhibitrice sur la formation des rosettes (comparison in words)” value is listed as “inhibiteur à un degré identique” and the “activité immuno-stimulante (stimulation de la formation des rosettes)” value is reported as “activité immuno-stimulante à faible concentration”.

Take `Cn1cc(C(=O)c2cc(O)cc3ccccc23)cc1C(=O)O` [dérivé N-méthyl-(3-hydroxy-naphtoyl-1), Acide N-méthyl-4-(3-hydroxy-naphtoyl-1)-pyrrolyl-2-carboxylique]: the “activité immuno-stimulante (stimulation de la formation des rosettes)” value in assay [1] is on record as “stimuler la formation des rosettes”.
